Results from ChEMBL document CHEMBL1152560, “Substituted 2-arylbenzothiazoles as kinase inhibitors: hit-to-lead optimization” (Bioorg Med Chem, 2009).

Assays:
[1] = target: Ribosomal protein S6 kinase beta-2 (Homo sapiens) (UniProt Q9UBS0); test: Residual activity of S6Kbeta at 0.1 uM by microplate scintillation counting
[2] = target: Ribosomal protein S6 kinase alpha-6 (Homo sapiens) (UniProt Q9UK32); test: Residual activity of RPS6KA6 at 0.1 uM by microplate scintillation counting
[3] = target: Tyrosine-protein kinase BTK (Homo sapiens) (UniProt Q06187); test: Residual activity of BTK at 10 uM by microplate scintillation counting
[4] = target: Tyrosine-protein kinase Blk (Homo sapiens) (UniProt P51451); test: Residual activity of BLK at 10 uM by microplate scintillation counting
[5] = target: Serine/threonine-protein kinase 33 (Homo sapiens) (UniProt Q9BYT3); test: Residual activity of STK33 at 1 uM by microplate scintillation counting
[6] = target: Tyrosine-protein kinase Lck (Homo sapiens) (UniProt P06239); test: Residual activity of LCK at 0.1 uM by microplate scintillation counting
[7] = target: Cyclin-dependent kinase 5/CDK5 activator 1 (Homo sapiens) (UniProt Q00535+Q15078); test: Residual activity of CDK5/p35NCK at 1 uM by microplate scintillation counting; format: protein-complex assay
[8] = target: Mitogen-activated protein kinase 14 (Homo sapiens) (UniProt Q16539); test: Residual activity of p38alpha at 0.1 uM by microplate scintillation counting
[9] = target: Misshapen-like kinase 1 (Homo sapiens) (UniProt Q8N4C8); test: Residual activity of MINK1 at 1 uM by microplate scintillation counting
[10] = target: Serine/threonine-protein kinase PAK 2 (Homo sapiens) (UniProt Q13177); test: Residual activity of PAK2 at 1 uM by microplate scintillation counting
[11] = test system: T1, Receptor-type tyrosine-protein kinase FLT3 (Homo sapiens), P36888 [D835Y]; test: Residual activity of FLT3 D835Y mutant at 0.1 uM by microplate scintillation counting
T1 sequence (whole entry): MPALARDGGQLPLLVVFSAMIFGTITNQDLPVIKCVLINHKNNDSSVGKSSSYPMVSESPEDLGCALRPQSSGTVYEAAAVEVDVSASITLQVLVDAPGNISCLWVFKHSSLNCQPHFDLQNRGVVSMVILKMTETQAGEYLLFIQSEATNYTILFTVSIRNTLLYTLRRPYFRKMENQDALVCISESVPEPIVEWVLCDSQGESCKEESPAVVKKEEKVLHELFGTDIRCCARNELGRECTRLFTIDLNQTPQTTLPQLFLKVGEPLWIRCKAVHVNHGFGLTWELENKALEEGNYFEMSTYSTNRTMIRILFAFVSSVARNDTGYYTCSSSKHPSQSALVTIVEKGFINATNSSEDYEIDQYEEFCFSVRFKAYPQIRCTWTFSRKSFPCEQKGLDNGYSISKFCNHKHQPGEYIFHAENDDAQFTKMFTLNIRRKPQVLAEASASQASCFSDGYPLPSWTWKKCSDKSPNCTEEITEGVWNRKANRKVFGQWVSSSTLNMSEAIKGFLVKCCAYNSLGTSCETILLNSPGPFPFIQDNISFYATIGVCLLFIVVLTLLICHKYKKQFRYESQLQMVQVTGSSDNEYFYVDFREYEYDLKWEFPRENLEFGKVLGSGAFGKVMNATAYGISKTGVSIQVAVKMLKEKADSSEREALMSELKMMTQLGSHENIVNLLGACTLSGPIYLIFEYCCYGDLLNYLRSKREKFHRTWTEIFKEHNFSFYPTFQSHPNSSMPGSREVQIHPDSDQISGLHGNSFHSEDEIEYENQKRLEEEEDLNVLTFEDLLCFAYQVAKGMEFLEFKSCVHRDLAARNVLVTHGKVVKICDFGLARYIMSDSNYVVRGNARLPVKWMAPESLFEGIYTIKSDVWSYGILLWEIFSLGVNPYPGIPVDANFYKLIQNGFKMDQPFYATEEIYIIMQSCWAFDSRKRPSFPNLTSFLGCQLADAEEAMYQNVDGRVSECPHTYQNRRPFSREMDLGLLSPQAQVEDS

[12] = target: T2, Serine/threonine-protein kinase PLK4 (Homo sapiens) (UniProt O00444); test: Residual activity of SAK at 10 uM by microplate scintillation counting
T2 sequence (whole entry): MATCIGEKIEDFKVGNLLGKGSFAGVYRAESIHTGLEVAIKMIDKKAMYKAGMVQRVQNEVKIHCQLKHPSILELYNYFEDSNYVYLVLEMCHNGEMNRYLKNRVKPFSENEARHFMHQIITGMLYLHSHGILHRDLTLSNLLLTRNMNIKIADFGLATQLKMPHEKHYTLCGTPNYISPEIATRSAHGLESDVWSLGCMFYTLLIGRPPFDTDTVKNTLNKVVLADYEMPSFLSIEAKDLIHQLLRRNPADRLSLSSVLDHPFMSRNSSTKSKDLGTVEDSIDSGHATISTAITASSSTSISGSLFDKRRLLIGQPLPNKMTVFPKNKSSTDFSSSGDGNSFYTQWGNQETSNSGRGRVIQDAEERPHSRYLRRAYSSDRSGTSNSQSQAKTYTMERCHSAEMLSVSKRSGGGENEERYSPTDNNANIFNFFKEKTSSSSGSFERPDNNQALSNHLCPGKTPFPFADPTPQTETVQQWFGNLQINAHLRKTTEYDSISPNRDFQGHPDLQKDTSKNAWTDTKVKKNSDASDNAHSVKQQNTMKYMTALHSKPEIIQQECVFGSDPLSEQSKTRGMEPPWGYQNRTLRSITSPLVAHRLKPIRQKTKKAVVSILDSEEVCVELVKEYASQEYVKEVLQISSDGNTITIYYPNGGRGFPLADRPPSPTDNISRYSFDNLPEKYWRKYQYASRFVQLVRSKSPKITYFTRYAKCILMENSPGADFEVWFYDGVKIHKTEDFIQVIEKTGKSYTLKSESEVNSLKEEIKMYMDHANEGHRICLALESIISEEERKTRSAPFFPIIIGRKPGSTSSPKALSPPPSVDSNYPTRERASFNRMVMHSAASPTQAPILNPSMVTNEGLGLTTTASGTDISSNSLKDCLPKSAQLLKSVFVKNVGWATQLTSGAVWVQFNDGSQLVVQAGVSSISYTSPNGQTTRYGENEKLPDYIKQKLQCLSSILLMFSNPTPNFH

[13] = target: Serine/threonine-protein kinase MARK1 (Homo sapiens) (UniProt Q9P0L2); test: Residual activity of MARK1 at 1 uM by microplate scintillation counting
[14] = target: Serine/threonine-protein kinase WNK3 (Homo sapiens) (UniProt Q9BYP7); test: Residual activity of WNK3 at 0.1 uM by microplate scintillation counting
[15] = target: G protein-coupled receptor kinase 4 (Homo sapiens) (UniProt P32298); test: Residual activity of GRK4 at 1 uM by microplate scintillation counting
[16] = test system: Tyrosine-protein kinase ABL1 (Homo sapiens), P00519 [T315I]; test: Residual activity of ABL1 T315I mutant at 10 uM by microplate scintillation counting

Sequence of Ribosomal protein S6 kinase beta-2 (Homo sapiens) (Q9UBS0 whole entry): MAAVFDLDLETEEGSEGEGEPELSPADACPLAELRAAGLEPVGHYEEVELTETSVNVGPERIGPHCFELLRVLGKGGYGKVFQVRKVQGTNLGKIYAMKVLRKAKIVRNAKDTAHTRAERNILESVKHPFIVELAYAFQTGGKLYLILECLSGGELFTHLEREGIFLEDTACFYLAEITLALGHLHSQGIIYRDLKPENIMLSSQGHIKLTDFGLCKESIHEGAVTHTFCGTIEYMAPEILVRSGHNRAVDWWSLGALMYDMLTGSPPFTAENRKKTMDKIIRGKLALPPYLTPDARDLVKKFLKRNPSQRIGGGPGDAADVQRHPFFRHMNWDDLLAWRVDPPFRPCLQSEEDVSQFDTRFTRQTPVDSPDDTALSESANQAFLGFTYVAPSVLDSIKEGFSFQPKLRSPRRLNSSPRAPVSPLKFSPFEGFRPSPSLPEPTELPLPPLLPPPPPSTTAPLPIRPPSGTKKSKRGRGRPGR
Sequence of Ribosomal protein S6 kinase alpha-6 (Homo sapiens) (Q9UK32 whole entry): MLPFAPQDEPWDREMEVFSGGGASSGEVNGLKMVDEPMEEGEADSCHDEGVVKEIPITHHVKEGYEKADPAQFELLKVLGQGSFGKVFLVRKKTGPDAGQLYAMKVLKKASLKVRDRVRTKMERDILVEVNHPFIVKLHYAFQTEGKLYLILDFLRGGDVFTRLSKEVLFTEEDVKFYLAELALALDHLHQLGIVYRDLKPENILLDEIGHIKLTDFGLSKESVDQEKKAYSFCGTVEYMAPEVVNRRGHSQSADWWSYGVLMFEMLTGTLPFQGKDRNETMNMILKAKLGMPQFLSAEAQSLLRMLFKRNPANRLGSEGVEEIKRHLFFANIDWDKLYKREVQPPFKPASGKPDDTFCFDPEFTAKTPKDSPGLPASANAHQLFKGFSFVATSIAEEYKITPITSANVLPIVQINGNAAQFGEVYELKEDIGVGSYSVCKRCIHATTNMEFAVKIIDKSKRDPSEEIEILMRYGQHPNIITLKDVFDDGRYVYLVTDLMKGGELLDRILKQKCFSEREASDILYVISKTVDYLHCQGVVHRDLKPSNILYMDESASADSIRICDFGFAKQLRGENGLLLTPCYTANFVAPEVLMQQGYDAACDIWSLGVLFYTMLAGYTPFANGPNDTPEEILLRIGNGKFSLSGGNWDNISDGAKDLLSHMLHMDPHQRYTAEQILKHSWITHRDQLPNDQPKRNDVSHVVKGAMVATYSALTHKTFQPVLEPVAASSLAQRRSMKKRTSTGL
Sequence of Tyrosine-protein kinase BTK (Homo sapiens) (Q06187 whole entry): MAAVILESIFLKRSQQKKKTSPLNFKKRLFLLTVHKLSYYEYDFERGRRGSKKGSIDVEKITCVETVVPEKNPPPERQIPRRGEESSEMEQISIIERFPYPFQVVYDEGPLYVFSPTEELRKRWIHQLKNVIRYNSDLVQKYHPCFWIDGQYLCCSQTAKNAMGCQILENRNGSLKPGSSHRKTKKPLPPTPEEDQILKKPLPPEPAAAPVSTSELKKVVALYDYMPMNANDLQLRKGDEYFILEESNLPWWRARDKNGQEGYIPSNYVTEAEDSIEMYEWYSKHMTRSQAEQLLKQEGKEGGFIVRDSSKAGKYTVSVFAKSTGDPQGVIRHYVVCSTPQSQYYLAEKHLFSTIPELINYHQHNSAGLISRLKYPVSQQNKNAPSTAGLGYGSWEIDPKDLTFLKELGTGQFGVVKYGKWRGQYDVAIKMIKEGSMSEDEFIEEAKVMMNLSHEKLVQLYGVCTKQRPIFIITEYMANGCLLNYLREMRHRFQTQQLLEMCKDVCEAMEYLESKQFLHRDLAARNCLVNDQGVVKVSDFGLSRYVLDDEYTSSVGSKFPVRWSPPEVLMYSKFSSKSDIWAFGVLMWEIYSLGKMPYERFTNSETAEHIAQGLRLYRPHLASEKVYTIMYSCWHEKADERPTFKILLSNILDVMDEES
Sequence of Serine/threonine-protein kinase PAK 2 (Homo sapiens) (Q13177 whole entry): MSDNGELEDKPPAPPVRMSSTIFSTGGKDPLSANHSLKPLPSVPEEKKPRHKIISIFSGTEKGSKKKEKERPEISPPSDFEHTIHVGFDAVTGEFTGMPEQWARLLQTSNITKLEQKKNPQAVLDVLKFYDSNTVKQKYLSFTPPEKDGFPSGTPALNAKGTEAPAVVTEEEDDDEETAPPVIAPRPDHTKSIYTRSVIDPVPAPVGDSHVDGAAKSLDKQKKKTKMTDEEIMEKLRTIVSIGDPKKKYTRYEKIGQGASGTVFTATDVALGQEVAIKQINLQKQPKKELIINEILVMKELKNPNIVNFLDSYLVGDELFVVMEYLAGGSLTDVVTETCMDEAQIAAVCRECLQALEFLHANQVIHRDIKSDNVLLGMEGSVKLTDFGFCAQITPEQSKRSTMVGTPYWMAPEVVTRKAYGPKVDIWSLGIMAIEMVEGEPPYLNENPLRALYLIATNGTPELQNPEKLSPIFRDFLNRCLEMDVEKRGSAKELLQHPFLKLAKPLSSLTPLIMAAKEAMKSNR
Sequence of Serine/threonine-protein kinase 33 (Homo sapiens) (Q9BYT3 whole entry, looked up): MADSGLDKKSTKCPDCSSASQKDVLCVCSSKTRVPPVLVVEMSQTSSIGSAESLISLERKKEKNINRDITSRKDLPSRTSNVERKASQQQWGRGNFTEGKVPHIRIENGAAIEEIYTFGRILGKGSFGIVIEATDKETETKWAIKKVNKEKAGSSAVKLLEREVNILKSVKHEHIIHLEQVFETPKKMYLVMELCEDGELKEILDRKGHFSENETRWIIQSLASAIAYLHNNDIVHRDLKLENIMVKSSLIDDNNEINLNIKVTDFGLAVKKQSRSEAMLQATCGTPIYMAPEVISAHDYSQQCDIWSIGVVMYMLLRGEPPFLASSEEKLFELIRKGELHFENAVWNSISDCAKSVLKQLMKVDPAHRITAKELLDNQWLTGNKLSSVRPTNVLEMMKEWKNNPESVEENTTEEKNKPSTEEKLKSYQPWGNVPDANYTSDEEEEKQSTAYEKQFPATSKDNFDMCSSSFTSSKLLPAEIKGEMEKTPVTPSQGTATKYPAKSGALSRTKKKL
Sequence of G protein-coupled receptor kinase 4 (Homo sapiens) (P32298 whole entry, looked up): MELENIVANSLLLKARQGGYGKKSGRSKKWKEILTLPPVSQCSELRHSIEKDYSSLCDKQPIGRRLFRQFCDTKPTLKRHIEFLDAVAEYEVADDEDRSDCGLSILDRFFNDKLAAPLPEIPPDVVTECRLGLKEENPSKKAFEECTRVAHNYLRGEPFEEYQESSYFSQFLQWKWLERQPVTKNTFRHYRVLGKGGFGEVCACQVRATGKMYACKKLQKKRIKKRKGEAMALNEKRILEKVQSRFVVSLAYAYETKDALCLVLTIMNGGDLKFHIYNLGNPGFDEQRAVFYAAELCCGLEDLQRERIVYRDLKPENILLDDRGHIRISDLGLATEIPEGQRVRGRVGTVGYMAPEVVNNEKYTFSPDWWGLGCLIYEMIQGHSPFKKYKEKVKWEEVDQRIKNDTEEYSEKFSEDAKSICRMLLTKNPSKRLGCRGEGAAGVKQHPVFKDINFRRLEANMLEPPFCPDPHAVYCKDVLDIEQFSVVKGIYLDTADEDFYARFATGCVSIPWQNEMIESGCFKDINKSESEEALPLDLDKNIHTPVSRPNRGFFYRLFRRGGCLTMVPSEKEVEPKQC
Sequence of Tyrosine-protein kinase Lck (Homo sapiens) (P06239 2-509 limits assumed): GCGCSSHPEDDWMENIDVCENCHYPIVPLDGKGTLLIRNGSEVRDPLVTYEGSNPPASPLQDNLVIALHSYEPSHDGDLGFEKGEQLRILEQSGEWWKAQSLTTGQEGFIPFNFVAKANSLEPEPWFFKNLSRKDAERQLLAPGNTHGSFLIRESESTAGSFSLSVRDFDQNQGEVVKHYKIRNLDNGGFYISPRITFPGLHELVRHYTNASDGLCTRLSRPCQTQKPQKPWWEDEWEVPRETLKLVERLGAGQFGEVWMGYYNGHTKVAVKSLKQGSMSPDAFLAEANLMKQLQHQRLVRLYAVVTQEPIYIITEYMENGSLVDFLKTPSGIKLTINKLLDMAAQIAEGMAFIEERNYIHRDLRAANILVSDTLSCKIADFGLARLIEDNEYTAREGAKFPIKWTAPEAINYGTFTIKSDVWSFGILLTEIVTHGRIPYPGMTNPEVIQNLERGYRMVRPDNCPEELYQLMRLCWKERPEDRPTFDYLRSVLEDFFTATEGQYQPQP
Sequence of Cyclin-dependent kinase 5/CDK5 activator 1 (Homo sapiens) (Q00535 whole entry): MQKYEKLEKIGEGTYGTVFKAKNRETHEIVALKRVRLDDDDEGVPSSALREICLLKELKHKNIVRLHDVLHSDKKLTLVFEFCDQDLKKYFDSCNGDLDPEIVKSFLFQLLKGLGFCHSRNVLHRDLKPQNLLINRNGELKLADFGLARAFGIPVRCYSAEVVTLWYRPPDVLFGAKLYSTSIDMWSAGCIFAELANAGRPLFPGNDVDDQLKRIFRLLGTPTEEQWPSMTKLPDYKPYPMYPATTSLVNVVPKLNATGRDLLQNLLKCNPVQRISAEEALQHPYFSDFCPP
Sequence of Cyclin-dependent kinase 5/CDK5 activator 1 (Homo sapiens) (Q15078 99-307 partner limits assumed): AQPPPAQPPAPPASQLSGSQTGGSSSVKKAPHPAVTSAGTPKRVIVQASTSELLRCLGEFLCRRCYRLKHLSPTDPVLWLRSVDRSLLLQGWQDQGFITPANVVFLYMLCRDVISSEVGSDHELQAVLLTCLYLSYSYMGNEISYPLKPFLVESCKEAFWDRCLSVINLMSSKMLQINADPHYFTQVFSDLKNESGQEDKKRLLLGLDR
Sequence of Mitogen-activated protein kinase 14 (Homo sapiens) (Q16539 whole entry): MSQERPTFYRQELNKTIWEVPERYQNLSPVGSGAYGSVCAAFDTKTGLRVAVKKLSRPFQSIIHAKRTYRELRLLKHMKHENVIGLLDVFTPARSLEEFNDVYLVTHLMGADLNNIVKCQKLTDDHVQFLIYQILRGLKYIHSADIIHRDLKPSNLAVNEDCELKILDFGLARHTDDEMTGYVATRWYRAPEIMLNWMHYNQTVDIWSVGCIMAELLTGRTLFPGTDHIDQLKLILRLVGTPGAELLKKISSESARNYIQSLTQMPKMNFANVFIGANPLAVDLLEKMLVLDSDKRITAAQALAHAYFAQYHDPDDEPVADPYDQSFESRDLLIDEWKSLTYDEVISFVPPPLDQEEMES

| residual activity [1] [%] | residual activity [2] [%] | residual activity [3] [%] | residual activity [4] [%] | residual activity [5] [%] | residual activity [6] [%] | residual activity [7] [%] | residual activity [8] [%] | residual activity [9] [%] | residual activity [10] [%] | residual activity [11] [%] | residual activity [12] [%] | residual activity [13] [%] | residual activity [14] [%] | residual activity [15] [%] | residual activity [16] [%] | SMILES |
| --- | --- | --- | --- | --- | --- | --- | --- | --- | --- | --- | --- | --- | --- | --- | --- | --- |
| 47 | 92 | 53 | 33 | 84 | 104 | 97 | 100 | 86 | 102 | 83 | 1 | 86 | 94 | 97 | 43 | COc1cc2c(Oc3ccc(-c4nc5ccccc5s4)cc3)ncnc2cc1OCCCN1CCCC1 |
| 42 | 96 | 40 | 34 | 72 | 92 | 85 | 93 | 85 | 124 | 86 | 1 | 86 | 90 | 94 | 44 | COc1cc2c(Oc3ccc(-c4nc5ccccc5s4)cc3)ncnc2cc1OCCCN1CCN(C)CC1 |
| 55 | 95 | 6 | 10 | 107 | 86 | 86 | 101 | 73 | 103 | 79 | 1 | 90 | 84 | 106 | 31 | COc1cc2c(Oc3ccc(-c4nc5ccccc5s4)cc3F)ncnc2cc1OCCCN1CCN(C)CC1 |
